Structures can show the parent of a compound that is named as a salt. Where two headings read alike, the source gives them in different places.
Assays:
[1] = test system: rat colon (carbachol-induced contraction); assay: Reversal of carbachol-induced hypertone (contraction of rat colon strips in vitro); parameters: species or system rat (male Sprague-Dawley); conditions: colonic smooth muscle in vitro, read-out: Blockade of carbachol-induced contraction of rat colon (IC50)
Protocol: Reversal of Carbachol-Induced Hypertone
Male Spraque-Dawley rats weighing 300-350 gm were starved for 24 hours. The rats were brought to the lab and decapitated and colons were removed immediately. Fecal content was washed and longitudinal strips 4 cm long were placed in organ baths under 1 gm tension using Grass FT03 transducers. Tissues were allowed to equilibrate and were gassed with 95% oxygen and 5% carbon dioxide. The tissues were then contracted with carbachol to produce a tonic response. Then the drug solutions were added to see relaxation. Percent relaxation was calculated from the pre-treatment control period. For many compounds more than one concentration of the drug was tested. In these situations an IC50 was calculated, which is the dose which inhibited carbachol induced response by 50%.
(§1) Table II summarizes the effect of typical formula I compounds on muscarinic (M1) receptors.

[2] = target: T1, muscarinic (M1) receptors (Rattus norvegicus, UniProt P08482); assay: In vitro [3H]-pirenzepine binding (muscarinic M1, rat cerebral cortical membranes); parameters: species or system rat (male Sprague-Dawley)
T1 construct: Cerebral cortical membranes were prepared by differential centrifugation; from tissue; host or cells: rat cerebral cortex membranes
T1 sequence (P08482 1-460): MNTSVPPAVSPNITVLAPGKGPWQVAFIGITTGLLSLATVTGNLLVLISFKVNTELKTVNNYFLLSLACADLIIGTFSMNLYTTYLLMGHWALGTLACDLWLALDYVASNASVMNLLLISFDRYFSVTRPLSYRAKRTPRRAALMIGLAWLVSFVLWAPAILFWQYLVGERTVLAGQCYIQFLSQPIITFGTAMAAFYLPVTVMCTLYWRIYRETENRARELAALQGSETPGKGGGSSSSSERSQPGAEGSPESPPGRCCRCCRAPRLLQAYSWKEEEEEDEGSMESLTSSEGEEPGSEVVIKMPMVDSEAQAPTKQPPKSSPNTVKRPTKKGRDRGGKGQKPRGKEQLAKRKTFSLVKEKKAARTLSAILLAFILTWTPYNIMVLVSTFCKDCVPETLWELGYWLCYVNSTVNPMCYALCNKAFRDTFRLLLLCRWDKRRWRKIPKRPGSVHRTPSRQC
Protocol: In vitro Binding Methods for [3H]-pirenzepine Binding
For in vitro 3H-pirenzepine binding, male Sprague-Dawley (Harlan Sprague Dawley, Indianapolis, Ind.) rats weighing 100-150 gm were sacrificed by decapitation, the brains were quickly removed, and the cerebral cortex was dissected from the brain. Cerebral cortical membranes were prepared by differential centrifugation, washed twice and frozen until used.
The inhibition of binding of 3H-pirenzepine to receptors was determined by adding study drug, 1 nM 3H-pirenzepine (87.0 Ci/mmol, New England Nuclear, Boston, Mass.), and about 100 ug cerebral cortical membranes in 1 ml total volume of 20 mM tris-Cl buffer, pH 7.4, containing 1 mM MnCl2. After incubation for 1 hour at 25° C., the homogenates were filtered through glass filters (Whatman, GF/c) with vacuum, the filters were washed 3 times with 2 ml cold buffer, and placed in scintillation vials containing 10 ml scintillation fluid (Ready Protein +, Beckman, Fullerton, Calif.).
Radioactivity trapped on the filters was determined by liquid, scintillation spectrometry. Nonspecific binding was determined using 1 uM atropine.
as §1

[3] = test system: pylorus ligated rats (gastric acid secretion); format: in vivo, rat (male Sprague-Dawley); conditions: 2 h
Protocol: Gastric acid inhibition was determined in pylorus ligated rats following the procedure by Shay (Shay, H., Komarov, A. A. and Greenstein, M: Effects of vagotomy in the rat, Arch. Surg. 59: 210-226, 1949). Male Sprague-Dawley rats weighing approximately 200 gm were starved 24 hours prior to using. Water was provided ad libitrim. Under light ether anesthesia the pylorus was ligated and simultaneously the rats were dosed with the compound either i.p. or s.c. and the rats were allowed to recover from anesthetic. Acid was accumulated for 2 hours. At the end of this period, rats were killed. Stomach contents were removed, measured and titrated to a pH endpoint of 7.0.
(§2) The results in columns 6-8 are indicative of 5-HT1A agonist activity.

[4] = test system: brain 5-HIAA levels; assay: In vivo lowering of brain 5-HIAA levels; parameters: species or system rat (male Sprague-Dawley); conditions: Rattus norvegicus, 1 h, minimum effective dose lowering brain 5-HIAA, one hour after treatment, read-out: 5-HIAA MED
Protocol: (§3) In vivo Methods to Show 5HT1A Activity
(§4) Compounds of this invention were also examined for their in vivo effects on brain 5-HIAA and serum corticosterone levels. Male Sprague-Dawley rats weighing 150-200 g were administered subcutaneously or orally with aqueous solutions of the test compound. One hour after treatment, the rats were decapitated and trunk blood collected. The blood was allowed to clot and then was centrifuged to separate the serum. The concentration of corticosterone in the serum was determined by the spectrofluorometric method of Solem, J. H.; Brinck-Johnsen, T., Scand. J. Clin. Invest, [Suppl. 80], 17, 1 (1965). The whole brains from the decapitated rats were quickly removed, frozen on dry ice, and stored at -15° C. 5-HIAA concentrations were measured by liquid chromatography with electrochemical detection as described by Fuller, R. W.; Snoddy, H. D.; Perry, K. W., Life Sci. 40, 1921 (1987).
as §2

[5] = target: T2, 5HT1A receptors (Rattus norvegicus, UniProt P19327); assay: In vitro binding to 5HT1A receptors (inhibition of 3H-8-OH-DPAT binding, rat cerebral cortex synaptosomal membranes); parameters: species or system rat (male Sprague-Dawley)
T2 construct: synaptosomal membranes isolated from cerebral cortex; from tissue; host or cells: rat cerebral cortex, crude synaptosomal membranes
T2 sequence (P19327 1-422): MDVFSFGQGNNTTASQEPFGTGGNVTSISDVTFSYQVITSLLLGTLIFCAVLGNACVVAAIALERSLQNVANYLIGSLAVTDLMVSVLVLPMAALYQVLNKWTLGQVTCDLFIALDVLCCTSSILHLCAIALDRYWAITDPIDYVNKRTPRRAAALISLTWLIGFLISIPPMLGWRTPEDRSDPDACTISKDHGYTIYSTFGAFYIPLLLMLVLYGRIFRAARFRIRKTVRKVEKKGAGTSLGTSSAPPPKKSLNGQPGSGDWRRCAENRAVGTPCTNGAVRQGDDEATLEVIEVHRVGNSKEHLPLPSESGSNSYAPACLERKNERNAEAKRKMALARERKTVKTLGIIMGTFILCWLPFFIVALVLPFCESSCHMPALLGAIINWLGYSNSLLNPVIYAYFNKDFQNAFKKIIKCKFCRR
Excerpt: Sites specifically labeled by tritiated 8-hydroxy-2-dipropylamino-1,2,3,4-tetrahydronaphthalene (^3 H-8-OH-DPAT) have been identified as 5-HT1A receptors. This general procedure is set forth in Wong et al., J. Neural Transm. 71: 207-218 (1988).
In vitro Binding Methods to 5HT1A Receptors
Male Sprague-Dawley rats (110-150 g) from Harlan Industries (Cumberland, Ind.) were fed Purina Chow ad libitum for at least 3 days before being used in the studies. Rats were killed by decapitation. The brains were rapidly removed, and the cerebral cortices were dissected out at 4° C.
Brain tissues were homogenized in 0.32M sucrose. After centrifugation at 1000× g for 10 min. and then at 17000× g for 20 min., a crude synaptosomal fraction was sedimented. The pellet was suspended in 100 vol. of 50 mM Tris-HCl, pH 7.4, incubated at 37° C. for 10 min., and centrifuged at 50000× g for 10 min. The process was repeated and the final pellet was suspended in ice-chilled 50 mM Tris-HCl, pH 7.4.
Binding of ^3 H-8-OH-DPAT was performed according to the previously described method [Wong et al., J. Neural Transm. 64: 251-269 (1985)]. Briefly, synaptosomal membranes isolated from cerebral cortex were incubated at 37° C. for 10 min. in 2 ml of 50 mM Tris-HCl, pH 7.4; […]; 0.6 mM ascorbic acid; 5 mM CaCl2; 2 nM 3H-8-OH-DPATand 0.1 to 1000 nm of the compound of interest. Binding was terminated by filtering samples under reduced pressure through glass fiber (GFB) filters. The filters were washed twice with 5 ml of ice cold buffer and placed in scintillation vials with 10 ml of PCS (Amersham/Searle) scintillation fluid. Radioactivity was measured with a liquid scintillation spectrometer. Unlabeled 8-OH-DPAT at […] was also included in separate samples to establish non-specific binding. Specific binding of ^3 H-8-OH-DPAT is defined as the difference of radioactivity bound in the absence and in the presence of 10 μM unlabeled 8-OH-DPAT.
as §2

[6] = test system: serum corticosterone levels; assay: In vivo elevation of serum corticosterone levels; parameters: species or system rat (male Sprague-Dawley); conditions: Rattus norvegicus, sc, 1 h, read-out: Corticosterone MED
Protocol: as §3, §4, §2

[7] = test system: gastric secretion; conditions: intravenous infusion in humans; cited from earlier work
[8] = inhibition of 3H-8-OH-DPAT binding, rat cerebral cortex, read-out: Radioligand binding data (IC50, nM) 5-HT1a
[9] = inhibition of 3H-pirenzepine binding, rat cerebral cortical membranes, read-out: Radioligand binding data (IC50, nM) M1

Row | Compound | IC50 [1] [nM] | IC50 [2] [nM] | Gastric Acid Inhibition % [3] [%] | minimal effective dose ([4]; po) [mg/kg] | minimal effective dose ([4]; sc) [mg/kg] | IC50 [5, 8] [nM] | minimal effective dose [6] [mg/kg] | effect on production of mucus [7] | effect on volume and acidity of spontaneous and histamine-induced gastric secretion [7] | IC50 [2, 9] [nM] | IC50 [5] [nM] | minimal effective dose ([6]; minimum effective dose elevating serum corticosterone, one hour after treatment) [mg/kg]
1 | CCCN(CCC)C1CCc2cccc(O)c2C1 (stereo not drawn) [8-OH DPAT, 8-hydroxy-2-dipropylamino-1,2,3,4-tetrahydronaphthalene, reference compound] | 29800 | 1940 | 72.4 |  |  |  |  |  |  |  |  | 
2 | CCCN(CCC)C1CCc2cccc(-c3ccno3)c2C1.O=C(O)/C=C\C(=O)O (stereo not drawn) [Example 1, 2-(Di-n-propylamino)-8-(isoxazol-5-yl)-1,2,3,4-tetrahydronaphthalene maleate] | 8100 |  | 69.6 | 3 | 0.1 | 0.44 | 0.3 |  |  |  |  | 
3 | CCCN(CCC)C1CCc2cccc(-c3cc(Br)no3)c2C1.O=C(O)/C=C\C(=O)O (stereo not drawn) [Example 2, 2-(Di-n-propylamino)-8-(3-bromoisoxazol-5-yl)-1,2,3,4-tetrahydronaphthalene maleate] | 4600 | 220 |  |  | > 1 | 2.5 | > 1 |  |  |  |  | 
4 | CCCN(CCC)C1CCc2cccc(-c3oncc3C)c2C1.O=C(O)/C=C\C(=O)O (stereo not drawn) [Example 3, 2-(Di-n-propylamino)-8-(4-methylisoxazol-5-yl)-1,2,3,4-tetrahydronaphthalene maleate] |  | 190 | 95.7 | > 10 | 0.3 | 1.9 | 1 |  |  |  |  | 
5 | CCCN(CCC)C1CCc2cccc(-c3cc(C)no3)c2C1.O=C(O)/C=C\C(=O)O (stereo not drawn) [Example 5, 2-(Di-n-propylamino)-8-(3-methylisoxazol-5-yl)-1,2,3,4-tetrahydronaphthalene maleate] |  | 107 | 95.8 |  | 1 | 1.3 | > 1 |  |  |  |  | 
6 | NCCc1c[nH]c2ccc(O)cc12 [Example 5-HT, 5-hydroxytryptamine] |  |  |  |  |  |  |  | increasing the production of mucus | inhibits the volume and acidity of both spontaneous and histamine-induced gastric secretion |  |  | 
7 | N[C@@H](Cc1c[nH]c2ccc(O)cc12)C(=O)O [Example 5-HTP, 5-hydroxytryptophane] |  |  |  |  |  |  |  | increasing the production of mucus | inhibits the volume and acidity of both spontaneous and histamine-induced gastric secretion |  |  | 
8 | CCCN(CCC)C1CCc2cccc(-c3cc(-c4ccccc4)no3)c2C1 (stereo not drawn) [Example 6, 2-(Di-n-propylamino)-8-(3-phenylisoxazol-5-yl)-1,2,3,4-tetrahydronaphthalene hydrobromide] |  |  |  |  |  | 72 |  |  |  | 750 |  | 
9 | CCCN(CCC)C1CCc2cccc(-c3cc(SC)no3)c2C1 (stereo not drawn) [Example 7, 2-(Di-n-propylamino)-8-(3-methylthioisoxazol-5-yl)-1,2,3,4-tetrahydronaphthalene maleate] |  |  | 65.4 |  | > 1 |  |  |  |  | 173 | 1.2 | > 1
10 | Br.CCCN(CCC)C1CCc2cccc(-c3oncc3OC)c2C1 (stereo not drawn) [Example 8, 2-(Di-n-propylamino)-8-(4-methoxyisoxazol-5-yl)-1,2,3,4-tetrahydronaphthalene hydrobromide] |  | 195 | 46.8 |  | 1 | 1.7 | > 1 |  |  |  |  | 
11 | CCCN(CCC)[C@H]1CCc2cccc(-c3ccno3)c2C1 [Example 9, S-(-)-8-(isoxazol-5-yl)-2-dipropylamino-1,2,3,4-tetrahydronaphthalene maleate] | 2500 |  | 96.8 | 3 |  |  |  |  |  | 180 | 0.2 | 
12 | CCCN(CCC)[C@@H]1CCc2cccc(-c3ccno3)c2C1.O=C(O)/C=C\C(=O)O [Example 10, R-(+)-8-(isoxazol-5-yl)-2-dipropylamino-1,2,3,4-tetrahydronaphthalene maleate] | 9100 | 150 | 47.1 | 10 |  | 1.4 |  |  |  |  |  | 

Source: patent publication US5434174A, “Isoxazole derivatives for the treatment of irritable bowel syndrome” (priority 1993, dated 1995)
